Assay results from the CheMixHub viscosity set.

Assay: xn = mol fraction of the nth substance listed

CN(C)c1ccccc1 + CC(C)O
303.15 K, 101 kPa
Conditions	viscosity [mPa·s]
x1 = 0.0564	1.727
x1 = 0.1136	1.655
x1 = 0.1989	1.56
x1 = 0.2689	1.492
x1 = 0.3245	1.439
x1 = 0.3767	1.401
x1 = 0.4258	1.369
x1 = 0.4878	1.33
x1 = 0.5655	1.288
x1 = 0.6305	1.259
x1 = 0.7385	1.22
x1 = 0.8187	1.199
x1 = 0.9243	1.18

CCCCC(C)O (stereo unspecified) + CC(C)OC(C)C
viscosity [mPa·s], 100 kPa
Conditions	x2 = 0.0806	x2 = 0.1592	x2 = 0.2412	x2 = 0.3508	x2 = 0.4391	x2 = 0.5594	x2 = 0.6497	x2 = 0.7378	x2 = 0.8483	x2 = 0.9386
293.15 K	4.51	3.97	3.48	2.91	2.49	1.97	1.6	1.26	0.84	0.531
298.15 K	3.61	3.16	2.76	2.3	1.97	1.56	1.275	1.02	0.706	0.465
303.15 K	2.89	2.53	2.2	1.83	1.567	1.25	1.034	0.84	0.6	0.42
308.15 K	2.38	2.08	1.825	1.53	1.32	1.06	0.88	0.715	0.52	0.38
313.15 K	2	1.75	1.54	1.29	1.115	0.906	0.756	0.62	0.46	0.35
318.15 K	1.69	1.49	1.31	1.11	0.962	0.783	0.66	0.55	0.416	0.32
323.15 K	1.44	1.27	1.12	0.95	0.83	0.68	0.58	0.49	0.38	0.295

FC(F)(F)c1ccccc1 + CC(Cl)(Cl)Cl
298.15 K, 101.33 kPa
Conditions	viscosity [mPa·s]
x2 = 0.103	0.5617
x2 = 0.201	0.572
x2 = 0.301	0.5865
x2 = 0.402	0.6017
x2 = 0.502	0.6199
x2 = 0.602	0.6413
x2 = 0.701	0.6677
x2 = 0.8	0.7
x2 = 0.85	0.7179

CN(C)c1ccccc1 + CCC(=O)O
viscosity [mPa·s], 101 kPa
Conditions	x2 = 0.1014	x2 = 0.2025	x2 = 0.305	x2 = 0.3966	x2 = 0.5057	x2 = 0.6027	x2 = 0.6922	x2 = 0.8012	x2 = 0.8905	x2 = 0.8987
298.15 K	1.364	1.416	1.478	1.527	1.583	1.651	1.69	1.657	1.467	–
303.15 K	–	–	–	–	–	–	–	–	–	1.225

C=CC#N + CCC(=O)c1ccccc1
308.15 K, 101 kPa
Conditions	viscosity [mPa·s]
x2 = 0.1051	0.405
x2 = 0.1752	0.4545
x2 = 0.2496	0.513
x2 = 0.3126	0.5731
x2 = 0.4246	0.6893
x2 = 0.5385	0.8078
x2 = 0.6672	0.9571
x2 = 0.8184	1.161

CC(=O)CC(C)=O + CCC(C)(C)O
298.15 K, 101 kPa
Conditions	viscosity [mPa·s]
x1 = 0.1	2.481
x1 = 0.2	1.809
x1 = 0.3	1.39
x1 = 0.4	1.138
x1 = 0.5	0.987
x1 = 0.6	0.893
x1 = 0.7	0.827
x1 = 0.8	0.776
x1 = 0.9	0.733

CCC(C)(C)O + CCC(C)=O
Conditions	viscosity [mPa·s]
293.15 K, 101 kPa, x2 = 0.2341	2.105

CN(C)c1ccccc1 + CCC(C)=O
viscosity [mPa·s], 101 kPa
Conditions	303.15 K	308.15 K
x1 = 0.0689	0.487	0.438
x1 = 0.1256	0.574	0.516
x1 = 0.1905	0.671	0.605
x1 = 0.2652	0.776	0.701
x1 = 0.3256	0.853	0.773
x1 = 0.3905	0.926	0.84
x1 = 0.4621	0.993	0.905
x1 = 0.5362	1.048	0.958
x1 = 0.6058	1.086	0.997
x1 = 0.6753	1.113	1.025
x1 = 0.7416	1.129	1.045
x1 = 0.8056	1.14	1.06
x1 = 0.8826	1.149	1.076

C=CC#N + CCC(C)O
viscosity [mPa·s], 101.33 kPa
Conditions	x1 = 0.1033	x1 = 0.2014	x1 = 0.301	x1 = 0.4055	x1 = 0.5087	x1 = 0.6049	x1 = 0.7009	x1 = 0.803	x1 = 0.8992
298.15 K	1.828	1.319	0.99	0.775	0.63	0.536	0.456	0.418	0.378
303.15 K	1.567	1.165	0.887	0.704	0.582	0.499	0.438	0.391	0.358
308.15 K	1.361	1.024	0.799	0.644	0.539	0.465	0.413	0.373	0.342

CC(C)(C)Br + CCC(C)O
viscosity [mPa·s], 101.3 kPa
Conditions	x1 = 0.1001	x1 = 0.2023	x1 = 0.3034	x1 = 0.4041	x1 = 0.5076	x1 = 0.605	x1 = 0.7049	x1 = 0.8014	x1 = 0.8997
298.15 K	2.174	1.629	1.302	1.105	0.9569	0.876	0.8006	0.768	0.7327
313.15 K	1.386	1.108	0.9333	0.8074	0.7201	0.6655	0.6235	0.6023	0.5859

CCCCN(CCCC)CCCC + CCC(C)O
303.15 K, 101 kPa
Conditions	viscosity [mPa·s]
x1 = 0.01127	2.456
x1 = 0.0218	2.439
x1 = 0.03265	2.423
x1 = 0.04214	2.409
x1 = 0.04957	2.399
x1 = 0.05793	2.387
x1 = 0.06851	2.372
x1 = 0.07785	2.359
x1 = 0.08821	2.345

CN(C)c1ccccc1 + CCC(C)O
303.15 K, 101 kPa
Conditions	viscosity [mPa·s]
x1 = 0.0452	2.686
x1 = 0.0845	2.638
x1 = 0.1321	2.582
x1 = 0.1893	2.512
x1 = 0.2452	2.442
x1 = 0.2756	2.402
x1 = 0.3065	2.362
x1 = 0.3655	2.279
x1 = 0.4292	2.183
x1 = 0.4906	2.086
x1 = 0.6021	1.893
x1 = 0.7323	1.65
x1 = 0.8911	1.353

CC(=O)CC(C)=O + CCCC(C)O
298.15 K, 101 kPa
Conditions	viscosity [mPa·s]
x1 = 0.1	2.324
x1 = 0.2	1.65
x1 = 0.3	1.276
x1 = 0.4	1.082
x1 = 0.5	0.983
x1 = 0.6	0.918
x1 = 0.7	0.855
x1 = 0.8	0.787
x1 = 0.9	0.725

CCCCN(CCCC)CCCC + CCCCCC
viscosity [mPa·s], 101 kPa
Conditions	x1 = 0.0982	x1 = 0.1945	x1 = 0.3994	x1 = 0.495	x1 = 0.5384	x1 = 0.7924	x1 = 0.903
303.15 K	0.3305	0.3909	0.5434	0.623	0.6623	0.923	1.05
313.15 K	0.289	0.3449	0.4813	0.5536	0.588	0.8088	0.91

Cc1ccc(C(C)C)cc1 + CCCCCC
298.15 K, 101.33 kPa
Conditions	viscosity [mPa·s]
x2 = 0.0316	0.768
x2 = 0.0656	0.745
x2 = 0.0967	0.723
x2 = 0.1908	0.662
x2 = 0.2812	0.599
x2 = 0.3795	0.538
x2 = 0.5183	0.474
x2 = 0.6271	0.424
x2 = 0.7093	0.393
x2 = 0.8209	0.349
x2 = 0.9331	0.314

CCCCN(CCCC)CCCC + CCCCCCCC
viscosity [mPa·s], 101 kPa
Conditions	x1 = 0.0983	x1 = 0.1934	x1 = 0.395	x1 = 0.4909	x1 = 0.5915	x1 = 0.7854	x1 = 0.897
303.15 K	0.532	0.5833	0.7038	0.7674	0.838	0.9861	1.079
313.15 K	0.4675	0.5129	0.6183	0.6727	0.734	0.8553	0.9291

CCCCC(C)O (stereo unspecified) + CCCCCCCCCCCC
298.15 K, 101 kPa
Conditions	viscosity [mPa·s]
x2 = 0.0555	3.6
x2 = 0.0999	3.24
x2 = 0.1555	2.84
x2 = 0.1999	2.55
x2 = 0.2554	2.24
x2 = 0.2999	2.01
x2 = 0.3555	1.77
x2 = 0.3998	1.6
x2 = 0.4555	1.42
x2 = 0.4999	1.31
x2 = 0.5554	1.19
x2 = 0.5998	1.12
x2 = 0.6554	1.05
x2 = 0.6999	1.02
x2 = 0.7555	1
x2 = 0.7997	1
x2 = 0.8555	1.02
x2 = 0.8998	1.04
x2 = 0.9555	1.09

CCCCCCc1ccccc1 + CCCCCCCCCCCCCCCC
viscosity [mPa·s], 102 kPa
Conditions	x1 = 0.1344	x1 = 0.259	x1 = 0.3742	x1 = 0.4819	x1 = 0.5823	x1 = 0.6747	x1 = 0.765	x1 = 0.848	x1 = 0.9262
293.15 K	3.12	2.85	2.63	2.43	2.25	2.11	1.98	1.86	1.77
303.15 K	2.49	2.3	2.13	1.98	1.85	1.74	1.64	1.55	1.47
313.15 K	2.04	1.9	1.76	1.65	1.55	1.46	1.38	1.31	1.25
323.15 K	1.7	1.59	1.49	1.4	1.32	1.25	1.18	1.13	1.08
